2 substances from US20230233671A1, “RNA MOLECULES” (Pfizer Inc., priority 2021, published 2023) can be followed below.

Data set [1] relates to human embryonic kidney (HEK) 293T cells. The data set is described as follows: In vitro expression (IVE) of VZV RNA-LNP vaccines in HEK 293T cells (FACS). The class given is cell-based. Conditions: for VZV RNA-LNPs (293T cells) MFI: Table 8; for VZV RNA-LNPs (293T cells) EC50 (ng/well): Table 8, FIG. 15, input RNA vs percentage of gE-expressing cells, 24 hours. On the procedure: In vitro expression (IVE) analyses were conducted to assess the potency of VZV RNA-LNP vaccines. RNA constructs were formulated into LNPs as previously described in Example 3, and a range of input VZV RNA-LNP quantities was transfected into human embryonic kidney (HEK) 293T cells for 24 hours at 37° C., 5% CO2. Transfected cells were washed with DPBS, detached from plate wells using ACCUTASE®, and rinsed with cold PBS. Cells were subjected to live/dead staining, fixation, and permeabilization prior to FACS staining. Fixed and permeabilized cells were incubated with an anti-gE primary antibody (1:1000) for 45 minutes at 2-8° C., washed twice with BD PERM/WASH™ buffer and incubated with a goat anti-human kappa-PE secondary antibody (1:1000) for 30 minutes at 2-8° C. Cells were washed twice with BD PERM/WASH™ buffer, resuspended in 1×FACS buffer, and analyzed on a BD LSRII to determine the proportion of cells expressing VZV gE for each VZV RNA-LNP input. A titration curve was created whereby input RNA quantities were plotted against the percentage of gE-expressing cells to determine the EC50 of each VZV RNA-LNP vaccine.

The test system of data set [2] is VZV gE. The data set can be described thus: Serum VZV gE-binding IgG levels (LUMINEX) in LAV-experienced C57BL/6 mice. In kind it is in vivo. Conditions: for Day 35 (GMC), serum gE-binding IgG: C57BL/6 mice, LAV SQ Day 0, Day 35 prior to immunization; for Day 63 (GMC), serum gE-binding IgG / Day 76 (GMC), serum gE-binding IgG: LAV-experienced C57BL/6 mice; for Day 63 (GMC), serum gE-binding IgG: Day 63 (1 month post dose 1); for Day 76 (GMC), serum gE-binding IgG: Day 76 (13 days post dose 2/boost). How it is done:
Serum IgG levels were determined for each mouse sample using the LUMINEX® platform. Briefly, diluted sera were incubated in the dark in the presence of blocked, recombinant gE protein-bound single-plex microspheres (MAGPLEX® Microspheres, region 79) for 20±4 hours at 2-8° C., 300 rpm. A secondary antibody solution (R-phycoerythrin Conjugated AffiniPure F(ab)′2 Fragment Goat Anti-Mouse IgG F(ab)′2 Fragment Specific) was prepared at 1:250 in LXA-16 buffer. Plates were washed three times in LXA-20 (EIA-7), and secondary antibody was applied to each well of the assay plate. Plates were covered with aluminum sealers and incubated for 2 hours±15 minutes at 25° C., 300 rpm. Plates were washed three times with LXA-20 (EIA-7) buffer, and 100 ul LXA-20 was applied to each well. Plates were covered with aluminum sealers and incubated at 25° C., 300 rpm for a minimum of 4 minutes, or up to 2 hours. Plates were analyzed on a BIO-PLEX® Reader. IgG titers for Day, 28, 34 and 42 are show in Table 10 and FIGS. 17-19.
(§1) VZV RNA-LNP vaccines were tested for their ability to induce IgG and T cell responses in C57BL/6 mice. 15 mice per group were immunized in accordance with the schedule and specification in Table 11. Briefly, 10 or 15 mice per group were primed subcutaneously (SQ) on Day 0 with a live-attenuated varicella (LAV) vaccine (VARIVAX®, Merck) using a full human dose per mouse (1350 pfu), immunized intramuscularly (IM) on Day 35 day and boosted on Day 63. The “infection” with a LAV vaccine mimics exposure to VZV that humans receive when infected with VZV as children and develop chickenpox.
(§2) Mice immunized with SHINGRIX® received 1, 2.5, or 5 μg, corresponding to 1/50, 1/20, and 1/10 of the human clinical dose, respectively; mice immunized with gE_WT CO2 received 0.5 or 1 μg VZV RNA-LNP; mice immunized with ms5 CO1 received 0.5 or 1 ug VZV RNA-LNP; mice immunized with ms6 CO2 received 0.5 or 1 ug VZV RNA-LNP; and mice immunized with lyophilized gE_WT CO2 received 0.5 or 1 ug VZV RNA-LNP. Saline was administered on Day 35 and 63 to a negative control group. Sera was collected from mice on Day 35, 63 and 76 for characterization of VZV gE-binding IgG levels (LUMINEX® analyses). Spleens were harvested on Day 48 (13 days post dose 1 for selected groups) and Day 76 for cellular analysis (T cell and B cell responses).
Serum IgG levels were determined for each mouse sample using the LUMINEX® platform (described herein). IgG titers for Day 35, 63 (1 month post dose 1) and 76 (13 days pose dose 2) are show in Table 12 and FIGS. 22-24. Each data point in the figures is a result from an individual animal; each horizontal lines represents the geometric mean IgG concentration (μg/ml) and whiskers represent the 95% confidence interval.

For data set [3], the system named is VZV gE. The data set is described as follows: Frequency of gE-specific IgG+ B cells in splenocytes of LAV-experienced C57BL/6 mice (flow cytometry). In kind it is in vivo. Conditions: percentage of IgG-expressing B cells. How it is done:
as §1, §2
Vaccine-induced B cell response was evaluated by measuring the frequencies of VZV gE-specific B cells in the spleen. Wild type gE protein ectodomain with streptag was coupled to streptavidin (SA)-fluorochromes PE and APC, both from BioLegend in the ratio of 2:1 in separate tubes for 1 hour at room temperature (RT) at 20× of desired staining concentration (10 μg/mL for each protein). Each of the SA-fluorochrome-coupled spike proteins were pooled and diluted to 1× using flow cytometry (FC) buffer (2% FBS/PBS) to generate B-cell probes to identify gE-specific B cells. Single cell suspensions of splenocytes (5×10^6 cells per well) were first washed in PBS and stained with eFluor 506 Fixable Viability dye for 10 minutes at RT to identify live from dead cells. Following washes in FC buffer, cells were incubated with 50 μL/well of 1×B-cell probe for 30 to 45 minutes and then washed to remove unbound probes. Cells were surface stained with a cocktail of flow cytometry antibodies (CD19, IgD, IgM, IgD, All from BioLegend) to identify B cell surface phenotypes. Following washing, cells were fixed using BD Fixation buffer and suspended in FC buffer. Cells were acquired on LSR Fortessa and data analyzed by FlowJo (10.7.1). The results of gE-specific B cells were expressed as the percentage of IgG-expressing B cells.
(In flow cytometry, cells or beads pass a laser one at a time.)

Where [4] appears, read: Day 48 (13 days post dose 1), 1 μg IM Day 35.
Setting [5] is: Day 76 (13 days post dose 2/boost), 1 μg IM Days 35 and 63.

Regarding “ms5 CO1: modRNA construct, ORF SEQ ID NO: 153, VZV gE with deletion of aa 582-623”, in data set [1], the “VZV RNA-LNPs (293T cells) MFI” value stood at 543. Moreover, in data set [1], the “VZV RNA-LNPs (293T cells) EC50 (ng/well)” value was determined as 14 ng/well. Moreover, the “Day 35 (GMC), serum gE-binding IgG” value in data set [2] (0.5 μg group) amounted to 0.11 µg/mL; in data set [2] (1 μg group), 0.14 µg/mL. For the same substance, the entries for the “Day 63 (GMC), serum gE-binding IgG” value in data set [2] (0.5 μg IM Day 35) and in data set [2] (1 μg IM Day 35) were 41 µg/mL and 76 µg/mL, respectively. For the same substance, the “Day 76 (GMC), serum gE-binding IgG” value in data set [2] (0.5 μg IM Days 35 and 63) amounted to 556 µg/mL; in data set [2] (1 μg IM Days 35 and 63), 530 µg/mL. Further, the entries for the “gE-specific IgG+ B cells” value in data set [3] (setting [4]) and in data set [3] (setting [5]) were 4.14% and 2.19%, respectively.
Consider “ms6 CO2: modRNA construct, ORF SEQ ID NO: 157, VZV gE with deletion of aa 539-623, secreted”, for which the “VZV RNA-LNPs (293T cells) MFI” value in data set [1] turned out to be 162. In data set [1], the “VZV RNA-LNPs (293T cells) EC50 (ng/well)” value is listed as 220 ng/well. Besides, the figures for the “Day 35 (GMC), serum gE-binding IgG” value in data set [2] (0.5 μg group) and in data set [2] (1 μg group) were 0.28 µg/mL and 0.19 µg/mL, respectively. For the same substance, the “Day 63 (GMC), serum gE-binding IgG” value worked out at 50 µg/mL in data set [2] (0.5 μg IM Day 35) and 58 µg/mL in data set [2] (1 μg IM Day 35). Besides, the “Day 76 (GMC), serum gE-binding IgG” value in data set [2] (0.5 μg IM Days 35 and 63) came out at 464 µg/mL; in data set [2] (1 μg IM Days 35 and 63) it was 723 µg/mL. Further, the “gE-specific IgG+ B cells” value was determined as 1.85% in data set [3] (setting [4]) and 1.38% in data set [3] (setting [5]).
